Literature values as cited in patent publication US8632986B2, “Methods and kits for detection of toxemia” (priority 2008, dated 2014).

Molecular target: albumin (Homo sapiens, UniProt P02768)
Conditions: general statement

albumin, sequence (P02768 25-609, species assumed): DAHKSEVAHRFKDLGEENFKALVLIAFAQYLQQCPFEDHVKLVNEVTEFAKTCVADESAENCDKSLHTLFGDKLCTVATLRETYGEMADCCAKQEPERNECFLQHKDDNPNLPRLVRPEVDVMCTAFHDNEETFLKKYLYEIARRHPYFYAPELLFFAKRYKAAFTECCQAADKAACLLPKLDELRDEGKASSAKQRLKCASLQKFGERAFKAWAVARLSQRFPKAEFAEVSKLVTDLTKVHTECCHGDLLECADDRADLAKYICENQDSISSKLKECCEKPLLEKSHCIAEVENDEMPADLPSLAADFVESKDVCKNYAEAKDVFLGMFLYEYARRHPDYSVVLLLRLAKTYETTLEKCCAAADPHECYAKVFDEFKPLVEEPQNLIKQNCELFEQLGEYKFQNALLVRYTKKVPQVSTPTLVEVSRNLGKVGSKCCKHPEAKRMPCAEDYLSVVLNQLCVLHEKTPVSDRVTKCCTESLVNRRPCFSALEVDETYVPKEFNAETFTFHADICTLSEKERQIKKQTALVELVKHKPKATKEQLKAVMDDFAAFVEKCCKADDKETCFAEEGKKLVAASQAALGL

binding constant: about 10^9 mol^−1
SMILES: CCCCCCCCCCCCCCCCCC(=O)O [unlabeled stearic acid, stearic acid]
